Laboratory results from patent US20250313807A1, “SYSTEMS AND METHODS FOR CHARACTERIZATION OF POLYCYSTIC KIDNEY DISEASE” (University of Washington, priority 2022, published 2025).

Assays:
PKD organoid cysts = assay: cyst expansion in PKD organoids under static conditions (96-well plate); type: cell-based, human
Procedure: To test functionally whether cyst growth is linked to glucose transport in human organoids, cyst expansion was quantified in increasing concentrations of D-glucose under static conditions (96-well plate).
To test this hypothesis, the effects of pharmacological transport inhibitors on cysts were examined in static conditions.
Kidney organoid differentiation. […] 5,000-20,000 hPSCs per well were placed in each 24-well plate pre-coated with 300 μL of DMEM-F12 containing 0.2 mg/mL Matrigel and sandwiched the following day with 0.2 mg/mL Matrigel in mTeSR1 ([sequence] Technologies, Vancouver) to produce scattered, isolated spheroid colonies. 48 hrs after sandwiching, hPSC spheroids were treated with 12 μM CHIR99021 (Tocris Bioscience) for 36 h, then changed to RB (Advanced RPMI+1× Glutamax+1×B27 Supplement, all from Thermo Fisher Scientific) after 48 hours, and replaced with fresh RB every 3 days thereafter.
Image/video collection. Image collection was performed on a Nikon Ti Live-Cell Inverted Widefield microscope inside of an incubated live imaging chamber supplemented with 5% carbon dioxide. […] For longer-term experiments conducted in static 96-well cultures, organoids were imaged at regular intervals (typically 24 hours) and analyzed at the endpoint indicated in the figure graphs. Phase contrast and GFP (200 ms exposure) images were taken every 5 minutes for a maximum of 12 hours. […]

[1] = test system: PKD cysts of Pkd1^RC/RC mice; details: systemic perfusion with PBS+1 mM NBD-Glucose, kidney tissue sections
Procedure: To determine whether PKD cysts absorbed glucose in vivo, a methodology was devised to inject mice with NBD glucose and immediately retrieve their kidneys (FIG. 6D).
For perfusion experiments, NBD Glucose was freshly dissolved in PBS to a concentration of 1 mM. Freshly sacrificed Pkd1^RC/RC mice (>8 months old) were incised through the chest and nicked at the vena cava with a 27-gauge needle. Keeping pressure on the vena cava, mice were perfused systemically through the heart with a syringe containing 10 mL of PBS, followed by a second syringe containing 5 mL of either PBS alone (control) or PBS+1 mM NBD-Glucose. Kidneys were harvested immediately and embedded fresh without fixation or sucrose equilibration in OCT. Cryostat-cut mouse kidney sections (20 μm) were mounted in OCT and imaged on a confocal microscope with 10× objective. […] Mice were maintained on a standard diet under standard pathogen-free housing conditions, with food and water freely available.

PKD organoids [2] = test system: PKD organoids
Procedure: The low height of the channels in the flow devices enabled continuous time lapse imaging of fluorescent molecules without high background fluorescence.
Organoid perfusion in microfluidic chip. Ibidi μ-Slide VI0.4 were coated with 3.0% Reduced Growth Factor Geltrex (Life Technologies) and left at 37° C. overnight to solidify. Kidney organoids (21-40 d) were picked from adhered culture plates, pipetted into the slide channels (2-3 per channel) with RB, and left for 24 hrs at 37° C. to attach. Organoids were distributed randomly within the channel. For the fluidic condition, 60 mL syringes filled with RB were attached to channels using clear tubing (Cole-Parmer, 0.02″ ID, 0.083″ OD). A clamp was used to close off the tubing, and the media in the syringe was changed to 25 mL RB+36.5 μM 2-NBD-Glucose fluorescent glucose (Abcam ab146200). […]
Image/video collection. […] Experiments in microfluidic devices were recorded for 6 hours. […] Cyst growth rate in microfluidic devices was therefore calculated on an individual basis, when each cyst reached its maximal volume, which varied for each sample from 1 hour to 5 hours after the start of the experiment. For longer-term experiments conducted in static 96-well cultures, organoids were imaged at regular intervals (typically 24 hours) and analyzed at the endpoint indicated in the figure graphs. […]

PKD organoids [3] = assay: live/dead staining (calcein AM/propidium iodide) of cystic organoids; type: cell-based, human; details: 24 and 48 hours of treatment

SMILES: CCCN(CCC)S(=O)(=O)c1ccc(C(=O)O)cc1 [probenecid]
- effect on cyst growth (PKD organoid cysts; 15 mM D-Glucose, non-toxic doses): no effect on cyst growth

SMILES: O=C[C@H](Nc1ccc([N+](=O)[O-])c2nonc12)[C@@H](O)[C@H](O)[C@H](O)CO [NBD glucose, 2-(N-(7-Nitrobenz-2-oxa-1,3-diazol-4-yl)Amino)-2-Deoxyglucose]
- uptake by cyst-lining epithelia and surrounding interstitium [1]: readily took up NBD glucose
- absorption into organoid proximal and distal tubules (immunofluorescence) (PKD organoids [2]; organoid tubules): absorbed into and accumulated inside organoid proximal and distal tubules
- washout from loaded PKD organoids (PKD organoids [2]; switched into media containing only unlabeled glucose, continuous flow): disappeared rapidly

SMILES: O=C(CCc1ccc(O)cc1)c1c(O)cc(O)cc1O [Phloretin, phloretin]
- decrease of cyst size (PKD organoid cysts; 800 μM phloretin, 15 mM glucose): 77%
- toxicity by live-dead staining (PKD organoids [3]): no significant toxicity
